pEC50: −log10 of the molar value.

In the assay the target is Metabotropic glutamate receptor 5 (Homo sapiens, UniProt P41594). The experiment in a line: Positive modulation of human recombinant mGluR5 expressed in HEK293A cells by calcium based FLIPR assay. It is filed as functional, cell-based, HEK293-A.
Chain of Metabotropic glutamate receptor 5 (P41594 whole entry): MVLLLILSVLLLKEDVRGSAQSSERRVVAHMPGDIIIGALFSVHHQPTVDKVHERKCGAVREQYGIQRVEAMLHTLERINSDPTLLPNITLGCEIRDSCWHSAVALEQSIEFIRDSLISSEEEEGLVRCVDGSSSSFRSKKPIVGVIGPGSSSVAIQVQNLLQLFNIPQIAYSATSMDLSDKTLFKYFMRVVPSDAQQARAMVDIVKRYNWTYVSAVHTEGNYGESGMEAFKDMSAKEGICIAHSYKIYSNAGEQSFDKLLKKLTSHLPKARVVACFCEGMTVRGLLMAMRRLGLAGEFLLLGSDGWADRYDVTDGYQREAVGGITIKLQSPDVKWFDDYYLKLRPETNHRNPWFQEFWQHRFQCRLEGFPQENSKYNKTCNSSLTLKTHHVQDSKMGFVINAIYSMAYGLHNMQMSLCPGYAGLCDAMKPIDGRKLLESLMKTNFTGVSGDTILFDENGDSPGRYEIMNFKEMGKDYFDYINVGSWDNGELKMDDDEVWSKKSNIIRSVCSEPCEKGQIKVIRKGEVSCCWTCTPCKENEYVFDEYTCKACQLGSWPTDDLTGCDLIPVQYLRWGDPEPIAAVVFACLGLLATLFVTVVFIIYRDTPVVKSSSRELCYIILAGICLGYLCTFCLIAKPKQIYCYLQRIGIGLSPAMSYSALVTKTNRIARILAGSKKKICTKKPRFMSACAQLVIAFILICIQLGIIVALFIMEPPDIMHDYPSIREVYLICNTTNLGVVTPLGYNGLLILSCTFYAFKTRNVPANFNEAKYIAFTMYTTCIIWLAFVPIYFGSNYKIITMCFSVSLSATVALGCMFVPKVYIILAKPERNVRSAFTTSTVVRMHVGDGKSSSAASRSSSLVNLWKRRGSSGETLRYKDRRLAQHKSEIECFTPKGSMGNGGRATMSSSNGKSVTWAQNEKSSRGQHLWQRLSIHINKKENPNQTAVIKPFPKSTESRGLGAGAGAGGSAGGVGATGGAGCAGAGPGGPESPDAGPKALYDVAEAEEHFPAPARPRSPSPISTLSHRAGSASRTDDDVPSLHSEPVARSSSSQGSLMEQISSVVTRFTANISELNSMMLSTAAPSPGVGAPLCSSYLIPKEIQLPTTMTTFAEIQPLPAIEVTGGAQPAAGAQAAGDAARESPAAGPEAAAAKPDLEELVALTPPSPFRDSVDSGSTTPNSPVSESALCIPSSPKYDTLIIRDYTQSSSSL
`Cc1cc(-c2cn(CC(=O)N3CCN(c4cccnn4)CC3)c(-c3ccccc3)n2)ccc1F`: the negative-log EC50 (pEC50) (usually the negative decadic logarithm of the EC50, by convention in mol/L) was 6.07. The same measure for `CC1=NC2CCN(C(=O)Cn3cc(-c4ccc(F)c(C)c4)nc3-c3ccccc3)CC2O1` (centres undefined): 7.05; for `CC1=NC2CCN(C(=O)Cn3cc(-c4ccc(F)c(C)c4)nc3-c3ccc(F)cc3)CC2O1` (centres undefined): 7.40; for `Cc1cc(-c2cn(CC(=O)N3CCN(c4ccccn4)CC3)c(-c3ccc(F)cc3)n2)ccc1F`: 7.28.

(Values after ChEMBL document CHEMBL2429817, “Trisubstituted imidazoles as positive modulators of metabotropic glutamate receptor subtype 5” (ACS Med Chem Lett, 2013).)
